Laboratory results taken from PubChem BioAssay (NCI).
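Cells were grown in 96-well plates and exposed to each compound for 48 hours at five concentrations; endpoints were interpolated linearly between bracketing concentrations, or set to the highest concentration if not reached. TGI marks complete inhibition of growth.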

What was measured:
Experiment in all cases: NCI anticancer screen, dose series, 48 h
HL-60(TB) leukemia = test system: HL-60(TB) leukemia
U251 CNS = test system: U251 CNS
BT-549 breast = test system: BT-549 breast
NCI/ADR-RES ovarian = test system: NCI/ADR-RES ovarian
786-0 renal = test system: 786-0 renal
NCI-H460 lung = test system: NCI-H460 lung
A549 NSCLC = test system: A549 NSCLC
SN12C renal = test system: SN12C renal
PC-3 prostate = test system: PC-3 prostate
SF-539 CNS = test system: SF-539 CNS
SF-268 CNS = test system: SF-268 CNS
SNB-75 CNS = test system: SNB-75 CNS
SR leukemia = test system: SR leukemia
KM12 colon = test system: KM12 colon
MOLT-4 leukemia = test system: MOLT-4 leukemia
HT29 colon = test system: HT29 colon
OVCAR-8 ovarian = test system: OVCAR-8 ovarian
UACC-62 melanoma = test system: UACC-62 melanoma
HOP-92 NSCLC = test system: HOP-92 NSCLC
SF-295 CNS = test system: SF-295 CNS
SNB-19 CNS = test system: SNB-19 CNS
SK-MEL-5 melanoma = test system: SK-MEL-5 melanoma
UO-31 renal = test system: UO-31 renal
NCI-H23 lung = test system: NCI-H23 lung
M14 melanoma = test system: M14 melanoma
HOP-62 NSCLC = test system: HOP-62 NSCLC
OVCAR-4 ovarian = test system: OVCAR-4 ovarian
NCI-H226 lung = test system: NCI-H226 lung
MALME-3M melanoma = test system: MALME-3M melanoma
SK-MEL-2 melanoma = test system: SK-MEL-2 melanoma
CCRF-CEM leukemia = test system: CCRF-CEM leukemia
UACC-257 melanoma = test system: UACC-257 melanoma
ACHN renal = test system: ACHN renal
EKVX NSCLC = test system: EKVX NSCLC
OVCAR-5 ovarian = test system: OVCAR-5 ovarian
DU-145 prostate = test system: DU-145 prostate
T-47D breast = test system: T-47D breast
MDA-MB-435 = test system: MDA-MB-435
RPMI-8226 leukemia = test system: RPMI-8226 leukemia
SK-MEL-28 melanoma = test system: SK-MEL-28 melanoma
A498 renal = test system: A498 renal
K-562 leukemia = test system: K-562 leukemia
HCC-2998 colon = test system: HCC-2998 colon
LOX IMVI melanoma = test system: LOX IMVI melanoma
RXF 393 renal = test system: RXF 393 renal
MDA-N = test system: MDA-N
CAKI-1 renal = test system: CAKI-1 renal
HCT-116 colon = test system: HCT-116 colon
IGROV1 ovarian = test system: IGROV1 ovarian
HS 578T breast = test system: HS 578T breast
OVCAR-3 ovarian = test system: OVCAR-3 ovarian
MDA-MB-231 breast = test system: MDA-MB-231 breast
SW-620 colon = test system: SW-620 colon
TK-10 renal = test system: TK-10 renal
MCF7 breast = test system: MCF7 breast
HCT-15 colon = test system: HCT-15 colon
COLO 205 colon = test system: COLO 205 colon
SK-OV-3 ovarian = test system: SK-OV-3 ovarian

Measured: TGI

O=C(O)CCC(NC(=O)c1ccc(Nc2cnc3ccc(C(F)(F)F)cc3n2)cc1)C(=O)O (stereo not drawn)
> 100 µM: all assays above
